Assay results reported in article PMC8791944, “GLUT3 inhibitor discovery through in silico ligand screening and in vivo validation in eukaryotic expression systems” (Scientific Reports, 2022).
Values joined by “and” are separate entries in the source; they are usually repeats but may differ in a detail not shown here. Equal values may be shown once. “Also recorded” adds a separate entry of the source. Read-outs that look alike come from different tables or passages of the source.

Biological target: T1, GLUT3S66Y (Homo sapiens, UniProt P11169, S66Y)
T1 construct: expressed in transfected cells; host or cells: Saccharomyces cerevisiae hxt0 strain EBY.S7 (fgy1)
T1 sequence (P11169 1-496 S66Y): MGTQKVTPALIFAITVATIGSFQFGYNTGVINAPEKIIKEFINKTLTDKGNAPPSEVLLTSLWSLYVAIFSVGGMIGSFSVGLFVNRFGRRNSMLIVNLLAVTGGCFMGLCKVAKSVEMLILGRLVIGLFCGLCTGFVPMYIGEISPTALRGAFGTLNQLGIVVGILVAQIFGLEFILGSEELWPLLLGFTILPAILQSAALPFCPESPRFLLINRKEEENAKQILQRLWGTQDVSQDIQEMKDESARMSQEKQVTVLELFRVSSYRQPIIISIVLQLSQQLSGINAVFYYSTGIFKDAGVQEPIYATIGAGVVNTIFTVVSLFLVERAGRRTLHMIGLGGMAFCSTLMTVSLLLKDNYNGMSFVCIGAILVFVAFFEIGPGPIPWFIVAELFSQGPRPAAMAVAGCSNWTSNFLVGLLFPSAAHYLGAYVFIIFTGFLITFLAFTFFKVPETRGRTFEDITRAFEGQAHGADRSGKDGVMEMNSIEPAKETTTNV
Assay: Glucose transport assay, GLUT3S66Y expressed in hxt^0 yeast cells EBY.S7
Format: cell-based
Conditions: for Inhibition mode in GLUT3: Dixon plots, versus glucose; for Ki: Ki for GLUT3 inhibition (Dixon plot), Dixon plots with GLUT3S66Y at 0.75, 1.50 and 3.00 mM glucose, competitive with glucose
Description: We determined GLUT3 transport activity by measuring the accumulation of radioactive glucose inside whole hxt^0 yeast cells (see “Materials and methods” for details). To select an appropriate substrate concentration for transport inhibition screening, we assessed the KM of glucose for GLUT3 in hxt^0 cells. […] Indeed, functional expression of human GLUTs in hxt^0 cells often requires mutations in genes related to yeast lipid composition[65],[73] as well as single-site mutations that may favor the outward-facing conformation of the transporters[65]–[67].
The plasmids containing functional constructs of GLUT1-5 were transformed in the corresponding hxt^0 strains[65],[66],[73] (EBY.VW4000 for GLUT5S72Y, EBY.S7 for GLUT1, GLUT2∆loopS_Q455R, GLUT3 and GLUT3S66Y, and SDY.022 for GLUT4) and grown on 2% (w/v) agar plates of the respective media supplemented with 1% (w/v) maltose. An initial culture of ~ 10 ml was started with a few colonies and grown for 2–3 days if the media was SC-uracil with 1% (w/v) maltose (GLUT1, GLUT3, GLUT4) or 1–2 days if the media was YEP with 1% (w/v) maltose and 100 µg/ml geneticin G418 (GLUT2∆loopS_Q455R and GLUT5S72Y). Cells were washed once in the corresponding media in which maltose was substituted with 0.1–2% hexose substrate for the expressing GLUT (i.e., SC-uracil, 2% (w/v) glucose for GLUT1; SC-uracil, 0.2% (w/v/) glucose for GLUT3 and GLUT4; YEP, 0.2% (w/v) glucose, 100 µg/ml geneticin G418 for GLUT2∆loopS_Q455R, and YEP, 2% (w/v) fructose for GLUT5 S72Y). Then, cells were transferred in the same media so that OD600nm ~ 0.5 and grown further for 1–2 days.
For transport activity assay, cells in the hexose media were centrifuged (1000×g, 5 min, room temperature), washed once with PBS buffer (10 mM Na2HPO4, 1.8 mM KH2PO4, 2.7 mM KCl, 137 mM NaCl, pH 7.4), and resuspended in PBS buffer at an OD600nm ~ 10; each assay contained 100 µl of this cell solution. Transport activity assay was started by adding C^14-hexose at a substrate concentration corresponding to the respective KM (5 mM glucose for GLUT1 or GLUT4, 3 mM glucose for GLUT3 or 1.5 mM glucose for GLUT3S66Y, 15 mM glucose for GLUT2∆loopS_Q455R, and 10 mM fructose for GLUT5S72Y); for determining the glucose KM in GLUT3 and GLUT3S66Y, substrate concentrations were varied accordingly. […] The filtration membranes were transferred into scintillation vials with 10 ml of Scintillation Solution (BioSafeII; Research Products International, Mount Prospect, IL, USA), and vortexed briefly. The radioactivity was determined with a scintillation counter (Tri-carb 2900TR, Perkin Elmer, USA). As all compounds were solubilized in dimethyl sulfoxide (DMSO), controls for determining the relative transport activity included 1% (v/v) DMSO to represent DMSO used as vehicle control (i.e., 100% activity), and known inhibitors at saturating concentrations, 200 µM phloretin for GLUT1-4[69],[82], and 100 µM N-[4-(methylsulfonyl)-2-nitrophenyl]-1,3-benzodioxol-5-amine (MSNBA) for GLUT5 (i.e., complete inhibition). […] Data were analyzed with GraphPad Prism (San Diego, CA, USA).
Supplementary Figure S3. Dose response curves for G3iA-G3iF inhibition of GLUT3S66Y. […] Error bars represent standard deviations from at least three independent measurements. Graphs, data analysis, and IC50 values were generated with GraphPad (www.graphpad.com).
Inhibition mode of G3iA, G3iC, and G3iE in GLUT3. (A-C) Dixon plots^2 for GLUT3S66Y inhibition by G3iA, G3iC, and G3iE, respectively.

Row | SMILES | IC50 (read-out: IC50 for GLUT3S66Y transport inhibition) | IC50 | Inhibition mode in GLUT3 | Ki | Inhibition mode in GLUT3 (listed as G2iA)
1 | COc1ccccc1-n1c(/C=C/c2ccc(O)cc2)nc2ccc(Br)cc2c1=O [G3iB, 6-bromo-2-[(E)-2-(4-hydroxyphenyl)ethenyl]-3-(2-methoxyphenyl)quinazolin-4(3H)-one] | 9.62 ± 1.17 µM |  |  |  | 
2 | Cc1cc(NC(=O)CCC2Cc3ccccc3NC2=O)nc(-c2ccccc2)n1 (stereo not shown) [G3iD] |  | 12.6 ± 1.6 µM |  |  | 
3 | O=C(Nc1cccc(Cl)c1)c1cccc(NC(=O)c2cccc([N+](=O)[O-])c2)c1 [G3iE, N-{3-[(3-chloroanilino)carbonyl]phenyl}-3-nitrobenzamide] |  | 20.6 ± 2.4 µM | competitive inhibition with glucose; also recorded: competition with glucose; also recorded: competitive inhibition mode | 12.3 ± 0.9 µM | 
4 | Cc1cccnc1OC1CCN(c2cc(N3CCCC3CO)ncn2)CC1 (stereo not shown) [G3iC] |  | 10.1 ± 2.1 µM | competitive inhibition with glucose; also recorded: competitive inhibition mode | 5.83 ± 0.3 µM | 
5 | Cc1ccccc1CN(Cc1nnc(C(C)(C)C)o1)c1ccc2nc(O)[nH]c2c1 [G3iF] |  | 24.8 ± 6 µM |  |  | 
6 | CC(=O)Nc1ccc(S(=O)(=O)Nc2ccc(Nc3cc(N(C)C)nc(C)n3)cc2)cc1 [G3iA, N-(4-{[(4-{[6-(dimethylamino)-2-methylpyrimidin-4-yl]amino}phenyl)amino]sulfonyl}phenyl)acetamide] |  | 6.21 ± 0.95 µM | competitive inhibition with glucose | 3.49 µM and ~3.5 µM | competitive inhibition mode
